This experiment addresses GABAA receptor ([35S]-TBPS binding, rat brain cortical membranes). Nature of the experiment: Steroid inhibition of [35S]-TBPS binding. To be noted: Table III-1 (biological data), 3 nM [35S]-TBPS, in the presence of 5 mM GABA, read-out: TBPS IC50. The essentials:
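Sprague-Dawley rat cortical P2 membranes incubated 90 min at room temperature with 3 nM [35S]-TBPS, […] GABA and test compound (0.5% DMSO) in 200 mM NaCl/50 mM Na-K phosphate pH 7.4. Nonspecific binding with […] TBPS; filtration and scintillation counting; IC50 and Imax from nonlinear fits.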

Each structure is given as a SMILES string. A value given as a limit tells only on which side of the number the result lay.

For orientation: IC50 means the concentration that inhibits the measured activity by half.

Turning to `CC[C@]12CC[C@H]3[C@@H](CC[C@H]4C[C@@](O)(COC)CC[C@@H]43)[C@@H]1CC[C@@H]2C(=O)Cn1nnnc1C` [III-A23, 1-((3R,5S,8R,9R,10S,13S,14S,17S)-13-ethyl-3-hydroxy-3-(methoxymethyl)hexadecahydro-1H-cyclopenta[a]phenanthren-17-yl)-2-(5-methyl-1H-tetrazol-1-yl)ethan-1-one], the IC50 lay within 0.1 to 1 µM.

Turning to `CC[C@]12CC[C@H]3[C@@H](CC[C@@H]4C[C@](C)(O)CC[C@@]43C)[C@@H]1CC[C@@H]2C(C)=O` [III-A30, 1-((3R,5R,8R,9S,10S,13S,14S,17S)-13-ethyl-3-hydroxy-3,10-dimethylhexadecahydro-1H-cyclopenta [a]phenanthren-17-yl)ethan-1-one], the half-inhibitory concentration (IC50) is less than 0.01 µM.

With `CC[C@]12CC[C@H]3[C@@H](CC[C@@H]4C[C@](C)(O)CC[C@@]43C)[C@@H]1CC[C@@H]2C(=O)Cn1nnc(C)n1` [III-A33], the IC50 was less than 0.01 µM. Consider `CC[C@]12CC[C@H]3[C@@H](CC[C@@H]4C[C@@](O)(COC)CC[C@@H]43)[C@@H]1CC[C@@H]2C(C)=O` [III-B15, 1-((3R,5R,8R,9R,10S,13S,14S,17S)-13-ethyl-3-hydroxy-3-(methoxymethyl)hexadecahydro-1H-cyclopenta[a]phenanthren-17-yl)ethan-1-one], for which the IC50 was in the range of 0.01 to 0.1 µM. As for `CC[C@]12CC[C@H]3[C@@H](CC[C@@H]4C[C@@](O)(COC)CC[C@@H]43)[C@@H]1CC[C@@H]2C(=O)Cn1cc(C#N)cn1` [III-B17, 1-(2-((3R,5R,8R,9R,10S,13S,14S,17S)-13-ethyl-3-hydroxy-3-(methoxymethyl)hexadecahydro-1H-cyclopenta[a]phenanthren-17-yl)-2-oxoethyl)-1H-pyrazole-4-carbonitrile], the figure is 0.01 to 0.1 µM. With `COC[C@]12CC[C@H]3[C@@H](CC[C@@H]4C[C@](C)(O)CC[C@@H]43)[C@@H]1CC[C@@H]2C(C)=O` [III-C11, 1-((3R,5R,8R,9R,10S,13R,14S,17S)-3-hydroxy-13-(methoxymethyl)-3-methylhexadecahydro-1H-cyclopenta[a]phenanthren-17-yl)ethan-1-one], the IC50 fell in the range of 0.01 to 0.1 µM.

As for `COC[C@]12CC[C@H]3[C@@H](CC[C@@H]4C[C@](C)(O)CC[C@@H]43)[C@@H]1CC[C@@H]2C(=O)Cn1cc(C#N)cn1` [III-C13, 1-(2-((3R,5R,8R,9R,10S,13R,14S,17S)-3-hydroxy-13-(methoxymethyl)-3-methylhexadecahydro-1H-cyclopenta[a]phenanthren-17-yl)-2-oxoethyl)-1H-pyrazole-4-carbonitrile], the IC50 is less than 0.01 µM.

These data come from patent US20210101928A1 (Sage Therapeutics, Inc., priority 2017, published 2021).
